Assay [1] deals with Beta Secretase enzyme (BACE) (Homo sapiens, UniProt P56817). Description: In vitro enzymatic BACE FRET (fluorescence resonance energy transfer) assay.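 Note: fluorescence read after 1 h with 50 nM quenched peptide substrate spanning the BACE cleavage site, in pH 4.2 acetate buffer containing 10% DMSO and nonionic detergent.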 The assay is classed as biochemical.
Assay [2] has as its system Aβ40 in conditioned medium of cells stably expressing Amyloid Precursor Protein (APP). Description: In vitro BACE cell-based assay (Aβ40 in conditioned medium, sandwich ELISA).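 Note: compounds added as a dilution series, secreted peptide quantified by europium time-resolved fluorescence readout, potency fitted from percent of control versus compound concentration.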
[3] abbreviates: BACE enzyme FRET assay, read-out: BACE1 FRET assay (IC50).
[4] abbreviates: Homo sapiens, HEK293, HEK cells, cell-based assay, read-out: HEK cell assay (IC50).
Setting [5] is: BACE enzyme assay, read-out: BACE1 FRET assay (IC50).
[6] abbreviates: Table 1, read-out: BACE1 FRET assay.
Where [7] appears, read: Homo sapiens, HEK293, Table 1, HEK cells, read-out: HEK cell assay.
[8] abbreviates: HEK cells, cell-based assay, read-out: HEK cell assay (IC50).
[9] abbreviates: BACE enzyme assay, IC50's in uM, read-out: BACE1 FRET assay.

Where two headings read alike, the source gives them in different places.

Beta Secretase enzyme (BACE), sequence (P56817 46-501): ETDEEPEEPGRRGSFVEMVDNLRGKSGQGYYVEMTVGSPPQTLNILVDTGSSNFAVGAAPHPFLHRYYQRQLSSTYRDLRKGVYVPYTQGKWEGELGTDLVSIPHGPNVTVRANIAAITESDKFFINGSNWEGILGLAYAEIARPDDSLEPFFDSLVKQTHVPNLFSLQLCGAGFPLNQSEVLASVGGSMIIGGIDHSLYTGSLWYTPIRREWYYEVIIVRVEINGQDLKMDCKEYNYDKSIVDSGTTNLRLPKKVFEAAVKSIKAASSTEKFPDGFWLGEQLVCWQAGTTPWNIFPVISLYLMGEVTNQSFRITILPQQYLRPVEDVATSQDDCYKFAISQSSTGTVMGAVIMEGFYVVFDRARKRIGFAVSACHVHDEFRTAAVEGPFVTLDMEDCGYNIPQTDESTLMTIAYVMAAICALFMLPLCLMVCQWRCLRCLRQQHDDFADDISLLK

Take `CC(=O)N[C@@H](Cc1ccc(F)cc1)[C@H](O)CN[C@H]1CC2(CCC2)Oc2cnc(CC(C)(C)F)cc21` [compound 254]: the results for the IC50 in assay [1] (setting [3]) and in assay [2] (setting [4]) were 0.178 µM and 0.152 µM, respectively.

For `COC(C)C(=O)NC(Cc1ccc2c(c1)OCO2)C(O)CNC1CC2(CC(C)C2)Oc2ncc(CC(C)(C)C)cc21` [compound 239, (2R)—N-((1S,2R)-1-(1,3-benzodioxol-5-ylmethyl)-3-(((1s,3R,4′S)-6′-(2,2-dimethylpropyl)-3-methyl-3′,4′-dihydrospiro[cyclobutane-1,2′-pyrano[2,3-b]pyridin]-4′-yl)amino)-2-hydroxypropyl)-2-(methyloxy)propanamide], the IC50 in assay [1] (setting [3]) is 0.0178 µM; in assay [2] (setting [4]), 0.0346 µM.

For the compound `CC(=O)N[C@@H](Cc1ccc(Cl)c(F)c1)[C@H](O)CN[C@H]1CC2(CCC2)Oc2ncc(CC(C)(C)C(F)F)cc21` [compound 225], the IC50 in assay [1] (setting [3]) came out at 0.00922 µM; in assay [2] (setting [4]), 0.0239 µM.

Turning to `CO[C@H](C)C(=O)N[C@@H](Cc1cccc(F)c1)[C@H](O)CN[C@H]1CC2(CCC2)Oc2ncc(CC(C)(C)C(F)(F)F)cc21` [compound 74], the IC50 was 0.0305 µM in assay [1] (setting [5]) and 0.0949 µM in assay [2] (setting [4]).

As to `CC(=O)N[C@@H](Cc1ccc2c(c1)OC(F)(F)O2)[C@H](O)CN[C@H]1CC2(CCC2)Oc2ncc(CC(C)(C)C)cc21` [compound 292], the IC50 in assay [1] (setting [3]) was found to be 0.0325 µM; in assay [2] (setting [4]) it was 0.159 µM.

Regarding `COCC(=O)N[C@@H](Cc1cccc(F)c1)[C@H](O)CN[C@H]1CC2(CCC2)Oc2ncc(CC(F)(F)F)cc21` [compound 350], the IC50 in assay [1] (setting [6]) came out at 0.00909 µM; in assay [2] (setting [7]), 0.0245 µM.

As to `CO[C@H](C)C(=O)N[C@@H](Cc1cc(F)cc(F)c1)[C@H](O)CN[C@H]1CC2(CCC2)Oc2ncc(CC(C)(C)C(F)F)cc21` [compound 228], the IC50 came out at 0.00615 µM in assay [1] (setting [3]) and 0.00756 µM in assay [2] (setting [4]).

As to `CC(C)(C)Cc1cnc2c(c1)[C@@H](NC[C@@H](O)[C@H](Cc1cc(F)cc(F)c1)NC(=O)COCc1cncs1)CC1(CCC1)O2` [compound 94], the figures for the IC50 in assay [1] (setting [5]) and in assay [2] (setting [4]) were 0.003 µM and 0.0171 µM, respectively.

With `COCC(=O)N[C@@H](Cc1ccc2c(c1)OCO2)[C@H](O)CN[C@H]1CC2(CCC2)Oc2c1cc(CC(C)(C)C)nc2Cl` [compound 127, N-((1S,2R)-1-(1,3-benzodioxol-5-ylmethyl)-3-(((4′S)-8′-chloro-6′-(2,2-dimethylpropyl)-3′,4′-dihydrospiro[cyclobutane-1,2′-pyrano[2,3-c]pyridin]-4′-yl)amino)-2-hydroxypropyl)-2-(methyloxy)acetamide], the IC50 was found to be 0.0255 µM in assay [1] (setting [5]) and 0.0678 µM in assay [2] (setting [4]).

With `CC(=O)N[C@@H](Cc1cccc(F)c1)[C@H](O)CN[C@H]1CC2(CCC2)Oc2ncc(CC(C)(F)F)cc21` [compound 277], the figures for the IC50 in assay [1] (setting [3]) and in assay [2] (setting [4]) were 0.00613 µM and 0.00936 µM, respectively.

As for `COCC(=O)N[C@@H](Cc1ccnc(OCC(F)(F)F)c1)[C@H](O)CN[C@H]1CC2(CCC2)Oc2ncc(CC(C)(C)C)cc21` [compound 166], the IC50 in assay [1] (setting [5]) turned out to be 0.0108 µM; in assay [2] (setting [4]) it was 0.00985 µM.

On to “1-cyclobutyl-N-((1S,2R)-3-(((4′S)-6′-(2,2-dimethylpropyl)-3′,4′-dihydrospiro[cyclobutane-1,2′-pyrano[2,3-b]pyridin]-4′-yl)amino)-1-((4-fluorophenyl)methyl)-2-hydroxypropyl)-5-oxo-3-pyrrolidinecarboxamide [compound 67]”, for which the IC50 in assay [1] (setting [5]) was 0.471 µM; in assay [2] (setting [8]), 0.0625 µM.

Take `CC(C)(C)Cc1cnc2c(c1)[C@@H](NC[C@@H](O)[C@H](Cc1ccc3c(c1)OCO3)NC(=O)C(C)(Cl)Cl)CC1(CCC1)O2` [compound 98]: the results for the IC50 in assay [1] (setting [5]) and in assay [2] (setting [8]) were 0.54 µM and 0.767 µM, respectively.

For `CO[C@H](C)C(=O)N[C@@H](Cc1cccc(F)c1)[C@H](O)CN[C@H]1CC2(CCC2)Oc2c(F)cc(CC(C)(C)C)cc21` [compound 222], the IC50 in assay [1] (setting [3]) stood at 0.00445 µM; in assay [2] (setting [4]), 0.0127 µM.

`CO[C@H](C)C(=O)N[C@@H](Cc1cccc(F)c1)[C@H](O)CN[C@H]1CC2(CCC2)Oc2c(-c3ccncc3)cc(CC(C)(C)F)cc21` [compound 564]: the IC50 in assay [1] (BACE enzyme assay, read-out: BACE1 FRET assay) is 0.032 µM; in assay [2] (Homo sapiens, HEK293, HEK cells, read-out: HEK cell assay), 0.029 µM.

With `COCC(=O)N[C@@H](Cc1ccc(F)cc1)[C@H](O)CN[C@H]1CC2(CCC2)Oc2ncc([C@H](F)C(C)(C)C)cc21` [compound 179], the IC50 in assay [1] (setting [5]) amounted to 0.00549 µM; in assay [2] (setting [4]), 0.0186 µM.

For `CO[C@H](C)C(=O)N[C@@H](Cc1ccc2c(c1)OCO2)[C@H](O)CN[C@H]1CC2(CCC2)Oc2ncc(C[C@H](C)C(F)(F)F)cc21` [compound 340], the IC50 in assay [1] (setting [6]) is 0.148 µM; in assay [2] (setting [7]), 0.0906 µM.

Regarding `COc1cc(C[C@H](NC(C)=O)[C@H](O)CN[C@H]2CC3(CCC3)Oc3ncc(CC(C)(C)C)cc32)ccc1F` [compound 78], the values for the IC50 in assay [1] (setting [5]) and in assay [2] (setting [4]) were 0.00449 µM and 0.00763 µM, respectively.

Consider `CC(=O)N[C@@H](Cc1ccc(F)cc1)[C@H](O)CN[C@H]1CC2(CCC2)Oc2ncc(CC3(C(F)(F)F)CC3)cc21` [compound 310], for which the IC50 came to 0.0505 µM in assay [1] (setting [3]) and 0.166 µM in assay [2] (setting [4]).

Take `CC(=O)N[C@@H](Cc1ccc(F)c(OC(F)(F)F)c1)[C@H](O)CN[C@H]1CC2(CCC2)Oc2ncc(CC(C)(C)F)cc21` [compound 77]: the IC50 in assay [1] (setting [5]) worked out at 0.00488 µM; in assay [2] (setting [4]) it was 0.016 µM.

As to `COCC(=O)N[C@@H](Cc1ccc2c(c1)OCO2)[C@H](O)CN[C@H]1CC2(CCC2)Oc2ncc(CC(C)C)cc21` [compound 334], the IC50 came to 0.048 µM in assay [1] (setting [6]) and 0.0672 µM in assay [2] (setting [7]).

As to `COCC(=O)N[C@@H](Cc1cccc(F)c1)[C@H](O)CN[C@H]1CC2(CCC2)Oc2ncc(CC(C)(F)F)cc21` [compound 278], the IC50 in assay [1] (setting [3]) was found to be 0.00676 µM; in assay [2] (setting [4]) it was 0.00822 µM.

On to `COCC(=O)NC(Cc1ccc2c(c1)OCO2)C(O)CNC1CC2(CC(O)C2)Oc2cnccc21` [compound 242, N-((1S,2R)-1-(1,3-benzodioxol-5-ylmethyl)-2-hydroxy-3-(((1s,3S,4′S)-3-hydroxy-3′,4′-dihydrospiro[cyclobutane-1,2′-pyrano[2,3-c]pyridin]-4′-yl)amino)propyl)-2-(methyloxy)acetamide], for which the figures for the IC50 in assay [1] (setting [3]) and in assay [2] (setting [4]) were 23.9 µM and 1.16 µM, respectively.

Regarding `CC(=O)N[C@@H](Cc1ccc(F)c(Br)c1)[C@H](O)CN(C)[C@H]1CC2(CCC2)Oc2ncc(CC(C)(C)C)cc21` [compound 354], the IC50 in assay [1] (setting [6]) was found to be 4.78 µM; in assay [2] (setting [7]) it was 3.49 µM.

In the case of `C#CCCC(=O)N[C@@H](Cc1cccc(F)c1)[C@H](O)CN[C@H]1CC2(CCC2)Oc2ncc(CC(C)(C)C)cc21` [compound 859], the IC50 in assay [1] (setting [9]) turned out to be 0.004 µM; in assay [2] (Homo sapiens, HEK293, cell-based assay, HEK cells, IC50's in uM, read-out: HEK cell assay) it was 0.027 µM.

`COCC(=O)N[C@@H](Cc1ccc(F)c(OC(F)(F)F)c1)[C@H](O)CN[C@H]1CC2(CCC2)Oc2ncc(CC(C)(C)C)cc21` [compound 81]: the results for the IC50 in assay [1] (setting [5]) and in assay [2] (setting [4]) were 0.00251 µM and 0.014 µM, respectively.

With `COCCNc1nc(CC(C)(C)C)cc2c1OC1(CCC1)C[C@@H]2NC[C@@H](O)[C@H](Cc1ccc(F)cc1)NC(C)=O` [compound 149, N-((1S,2R)-3-(((4′S)-6′-(2,2-dimethylpropyl)-8′-((2-(methyloxy)ethyl)amino)-3′,4-dihydrospiro[cyclobutane-1,2′-pyrano[2,3-c]pyridin]-4′-yl)amino)-1-((4-fluorophenyl)methyl)-2-hydroxypropyl)acetamide], the values for the IC50 in assay [1] (setting [5]) and in assay [2] (setting [4]) were 0.0479 µM and 0.0272 µM, respectively.

As for `CC(=O)N[C@@H](Cc1ccc(F)cc1)[C@H](O)CN[C@H]1C[C@]2(CC[C@@H]2O)Oc2ncc(CC(C)(C)C)cc21` [compound 117], the IC50 is 0.00785 µM in assay [1] (setting [5]) and 0.0336 µM in assay [2] (setting [4]).

For the compound `CNc1nc(CC(C)(C)C)cc2c1OC1(CCC1)C[C@@H]2NC[C@@H](O)[C@H](Cc1ccc2c(c1)OCO2)NC(C)=O` [compound 126], the results for the IC50 in assay [1] (setting [5]) and in assay [2] (setting [4]) were 0.0484 µM and 0.0091 µM, respectively.

Take `CO[C@H](C)C(=O)N[C@@H](Cc1cccc(F)c1)[C@H](O)CN[C@H]1CC2(CCC2)Oc2ncc(CC(F)(F)F)cc21` [compound 344]: the IC50 in assay [1] (setting [6]) is 0.00894 µM; in assay [2] (setting [7]) it was 0.0442 µM.

For the compound `CC#Cc1cccc(C[C@H](NC(=O)[C@@H](C)OC)[C@H](O)CN[C@H]2CC3(CCC3)Oc3ncc(CC(C)C)cc32)c1` [compound 803], the IC50 was found to be 0.022 µM in assay [1] (setting [9]) and 0.132 µM in assay [2] (Homo sapiens, HEK293, HEK cell-based assay, IC50's in uM, read-out: HEK cell assay).

For `CC(=O)N[C@@H](Cc1cc(F)c2c(c1)OCO2)[C@@H](O)CN[C@H]1CC2(CCC2)Oc2ncc(CC(C)(C)C)cc21` [compound 305, N-((1S,2S)-3-(((4′S)-6′-(2,2-dimethylpropyl)-3′,4′-dihydrospiro[cyclobutane-1,2′-pyrano[2,3-b]pyridin]-4′-yl)amino)-1-((7-fluoro-1,3-benzodioxol-5-yl)methyl)-2-hydroxypropyl)acetamide], the IC50 in assay [1] (setting [3]) came out at 0.0379 µM; in assay [2] (setting [4]), 0.058 µM.

Turning to `CO[C@H](C)C(=O)N[C@@H](Cc1cc(Br)c2c(c1)OCO2)[C@H](O)CN[C@H]1CC2(CCC2)Oc2ncc(CC(C)(C)C)cc21` [compound 210, (2R)—N-((1S,2R)-1-((7-bromo-1,3-benzodioxol-5-yl)methyl)-3-(((4′S)-6′-(2,2-dimethylpropyl)-3′,4′-dihydrospiro[cyclobutane-1,2′-pyrano[2,3-b]pyridin]-4′-yl)amino)-2-hydroxypropyl)-2-(methyloxy)propanamide], the IC50 in assay [1] (setting [3]) stood at 0.163 µM; in assay [2] (setting [4]) it was 0.224 µM.

For the compound `COCC(=O)N[C@@H](Cc1ccc2c(c1)OC(F)(F)O2)[C@H](O)CN[C@H]1CC2(CCC2)Oc2ncc(CC(C)(C)C)cc21` [compound 291], the IC50 in assay [1] (setting [3]) is 0.0414 µM; in assay [2] (setting [4]) it was 0.382 µM.
